Experimental data taken from ChEMBL document CHEMBL4715710, “Discovery, synthesis, and structure-activity relationships of 20S-dammar-24-en-2α,3β,12β,20-tetrol (GP) derivatives as a new class of AMPKα2β1γ1 activators” (Bioorg Med Chem, 2016).
Active and inactive are the calls of the source. The calls are words filed in the database; no cut-off is given here.

Legend:
[1] = Activation of human recombinant AMPK alpha2/beta1/gamma1 using substrate-1 peptide as substrate incubated for 45 mins in presence of ATP by HTRF assay
[2] = Inhibition of gluconeogenesis in C57/BL6 mouse primary hepatocytes at 20 uM measured after 6 hrs relative to control; assay type: functional; details: C57/BL6, Hepatocyte
HepG2 [3] = test: Activation of AMPK in human HepG2 cells assessed as induction of ACC phosphorylation at Ser79 residue measured after 1 hr by Western blot analysis; assay type: cell-based; details: filed as activator, dose 2.5-20 µM
HepG2 [4] = test: Activation of AMPK in human HepG2 cells assessed as induction of AMPK phosphorylation of Thr-172 residue at alpha subunit measured after 1 hr by Western blot analysis; assay type: cell-based; details: filed as activator, dose 2.5-20 µM
Hepatocyte = test: Cytotoxicity against C57/BL6 mouse primary hepatocytes at 5 to 40 uM measured after 24 hrs by sulforhodamine B assay; assay type: cell-based; details: dose 5-40 µM
Homo sapiens = species on record: Homo sapiens; test: Activation of human recombinant AMPK alpha2/beta1/gamma1 using substrate-1 peptide as substrate incubated for 45 mins in presence of ATP by HTRF assay relative to negative control
L6 = test: Effect on mitochondrial membrane potential in rat L6 cells at 5 to 40 uM measured after 1 hr by JC-1 staining based assay; assay type: functional, cell-based; details: dose 5-40 µM
HepG2 [5] = test: Activation of AMPK in human HepG2 cells assessed as induction of ACC phosphorylation at Ser79 residue at 2.5 to 20 uM measured after 1 hr by Western blot analysis; assay type: cell-based; details: filed as activator, dose 2.5-20 µM
HepG2 [6] = test: Activation of AMPK in human HepG2 cells assessed as induction of AMPK phosphorylation at alpha subunit at 2.5 to 20 uM measured after 1 hr by Western blot analysis; assay type: cell-based; details: filed as activator, dose 2.5-20 µM
[7] = Inhibition of gluconeogenesis in C57/BL6 mouse primary hepatocytes at 10 to 20 uM measured after 6 hrs relative to control; assay type: functional, Hepatocyte; details: dose 10-20 µM
Syrian golden hamster [8] = test: Antidyslipidemic activity against HFHC diet-induced hyperlipidemia in Golden Syrian hamster model assessed as decrease in total cholesterol level at 100 mg/kg, po bid via gavage administered for 2 weeks and measured after 28 days by automated chemistry analyzer; assay type: functional, organism-based; details: Mesocricetus auratus
Syrian golden hamster [9] = test: Antidyslipidemic activity against HFHC diet-induced hyperlipidemia in Golden Syrian hamster model assessed as decrease in ratio of LDL-C to HDL-C at 100 mg/kg, po bid via gavage administered for 2 weeks and measured after 28 days by automated chemistry analyzer; assay type: functional, organism-based; details: Mesocricetus auratus
Syrian golden hamster [10] = test: Antidyslipidemic activity against HFHC diet-induced hyperlipidemia in Golden Syrian hamster model assessed as decrease in triglycerides at 100 mg/kg, po bid via gavage administered for 2 weeks and measured after 28 days by automated chemistry analyzer; assay type: functional, organism-based; details: Mesocricetus auratus
HepG2 [11] = test: Activation of AMPK in human HepG2 cells assessed as induction of AMPK phosphorylation at alpha subunit at 20 uM measured after 1 hr by Western blot analysis; assay type: cell-based; details: filed as activator
Syrian golden hamster [12] = test: Antidyslipidemic activity against HFHC diet-induced hyperlipidemia in Golden Syrian hamster model assessed as decrease in high density lipoprotein cholesterol at 100 mg/kg, po bid via gavage administered for 2 weeks and measured after 28 days by automated chemistry analyzer; assay type: functional, organism-based; details: Mesocricetus auratus
Syrian golden hamster [13] = test: Antidyslipidemic activity against HFHC diet-induced hyperlipidemia in Golden Syrian hamster model assessed as decrease in low density lipoprotein cholesterol at 100 mg/kg, po bid via gavage administered for 2 weeks and measured after 28 days by automated chemistry analyzer; assay type: functional, organism-based; details: Mesocricetus auratus
HepG2 [14] = test: Activation of AMPK in human HepG2 cells assessed as induction of ACC phosphorylation at Ser79 residue at 20 uM measured after 1 hr by Western blot analysis; assay type: cell-based; details: filed as activator

Row | Structure (SMILES) | EC50 ([1]; read-out: EC50) [µM] | fold change (FC) (Homo sapiens; filed as activator) | other results
1 | CC1(C)[C@@H](O)[C@H](O)C[C@]2(C)[C@H]3C[C@@H](O)[C@@H]4[C@@H]([C@@](C)(O)CCCNCCCc5ccccc5)CC[C@@]4(C)[C@]3(C)CC[C@@H]12 | 0.8 | 2.7 | inhibition at 20 µM [2]: 80%; Activity (HepG2 [3]): Dose-dependent effect; Activity (HepG2 [4]): Dose-dependent effect; Activity (Hepatocyte): Non-Toxic; Activity (L6): Active
2 | CC(C)CCC[C@](C)(O)[C@H]1CC[C@]2(C)[C@@H]1[C@H](O)C[C@@H]1[C@@]3(C)C[C@@H](O)[C@H](O)C(C)(C)[C@@H]3CC[C@]12C | – | – | EC50 [1]: Not Active; fold change (FC) (Homo sapiens): < 1.5
3 | CCNCCC[C@](C)(O)[C@H]1CC[C@]2(C)[C@@H]1[C@H](O)C[C@@H]1[C@@]3(C)C[C@@H](O)[C@H](O)C(C)(C)[C@@H]3CC[C@]12C | 1.8 | 2.3 | –
4 | CCCNCCC[C@](C)(O)[C@H]1CC[C@]2(C)[C@@H]1[C@H](O)C[C@@H]1[C@@]3(C)C[C@@H](O)[C@H](O)C(C)(C)[C@@H]3CC[C@]12C | 1.9 | 2.9 | –
5 | CC(C)(O)[C@H]1CC[C@](C)([C@H]2CC[C@]3(C)[C@@H]2[C@H](O)C[C@@H]2[C@@]4(C)C[C@@H](O)[C@H](O)C(C)(C)[C@@H]4CC[C@]23C)O1 | 5.5 | 3.9 | –
6 | CC1(C)[C@@H](O)[C@H](O)C[C@]2(C)[C@H]3C[C@@H](O)[C@@H]4[C@@H]([C@@](C)(O)CCCNCc5ccc(F)cc5)CC[C@@]4(C)[C@]3(C)CC[C@@H]12 | 0.3 | 3.2 | inhibition at 20 µM [2]: 80%; Activity (HepG2 [3]): Dose-dependent effect; Activity (HepG2 [4]): Dose-dependent effect; Activity (Hepatocyte): Non-Toxic; Activity (L6): Active
7 | CC(C)(C)NCCC[C@](C)(O)[C@H]1CC[C@]2(C)[C@@H]1[C@H](O)C[C@@H]1[C@@]3(C)C[C@@H](O)[C@H](O)C(C)(C)[C@@H]3CC[C@]12C | 4.9 | 2.1 | –
8 | COc1ccc(CNCCC[C@](C)(O)[C@H]2CC[C@]3(C)[C@@H]2[C@H](O)C[C@@H]2[C@@]4(C)C[C@@H](O)[C@H](O)C(C)(C)[C@@H]4CC[C@]23C)cc1OC | 1.1 | 2.8 | –
9 | CC1(C)[C@@H](O)[C@H](O)C[C@]2(C)[C@H]3C[C@@H](O)[C@@H]4[C@@H]([C@@](C)(O)CCCNCc5ccccn5)CC[C@@]4(C)[C@]3(C)CC[C@@H]12 | 0.8 | 3 | Activity (HepG2 [5]): Active; Activity (HepG2 [6]): Active; inhibition (INH) [7]: 20%; Activity (L6): Active
10 | CC(C)(O)[C@@H]1CC[C@](C)([C@H]2CC[C@]3(C)[C@@H]2[C@H](O)C[C@@H]2[C@@]4(C)C[C@@H](O)[C@H](O)C(C)(C)[C@@H]4CC[C@]23C)O1 | 8.8 | 3.6 | –
11 | CNCCC[C@](C)(O)[C@H]1CC[C@]2(C)[C@@H]1[C@H](O)C[C@@H]1[C@@]3(C)C[C@@H](O)[C@H](O)C(C)(C)[C@@H]3CC[C@]12C | 1.9 | 2.6 | –
12 | Nc1ncnc2c1ncn2[C@@H]1O[C@H](COP(=O)(O)O)[C@@H](O)[C@H]1O [ADENOSINE PHOSPHATE] | 1.6 | 3.2 | –
13 | CC1(C)[C@@H](O)[C@H](O)C[C@]2(C)[C@H]3C[C@@H](O)[C@@H]4[C@@H]([C@@](C)(O)CCCNCCc5ccccc5)CC[C@@]4(C)[C@]3(C)CC[C@@H]12 | 1.2 | 2 | –
14 | CC(C)=CCC[C@](C)(O)[C@H]1CC[C@]2(C)[C@@H]1[C@H](O)C[C@@H]1[C@@]3(C)C[C@@H](O)[C@H](O)C(C)(C)[C@@H]3CC[C@]12C | 5.1 | 2.4 | Activity (Syrian golden hamster [8]): Active; Activity (Syrian golden hamster [9]): Active; Activity (Syrian golden hamster [10]): inactive; Activity (HepG2 [11]): Active; inhibition at 20 µM [2]: 25%; Activity (Syrian golden hamster [12]): inactive; Activity (Syrian golden hamster [13]): Active; Activity (HepG2 [14]): Active
15 | N#Cc1c(O)c2c(-c3ccc(-c4ccccc4O)cc3)csc2[nH]c1=O | 0.0096 | 4.2 | –
16 | C[C@H](NCCC[C@](C)(O)[C@H]1CC[C@]2(C)[C@@H]1[C@H](O)C[C@@H]1[C@@]3(C)C[C@@H](O)[C@H](O)C(C)(C)[C@@H]3CC[C@]12C)c1ccccc1 | 1.4 | 2.8 | –
17 | CC(C)NCCC[C@](C)(O)[C@H]1CC[C@]2(C)[C@@H]1[C@H](O)C[C@@H]1[C@@]3(C)C[C@@H](O)[C@H](O)C(C)(C)[C@@H]3CC[C@]12C | 1.2 | 2 | –
18 | COc1ccc(NCCC[C@](C)(O)[C@H]2CC[C@]3(C)[C@@H]2[C@H](O)C[C@@H]2[C@@]4(C)C[C@@H](O)[C@H](O)C(C)(C)[C@@H]4CC[C@]23C)cc1 | 3.8 | 2.9 | –
19 | COc1ccc(CNCCC[C@](C)(O)[C@H]2CC[C@]3(C)[C@@H]2[C@H](O)C[C@@H]2[C@@]4(C)C[C@@H](O)[C@H](O)C(C)(C)[C@@H]4CC[C@]23C)cc1 | 1 | 2.7 | –
20 | CC1(C)[C@@H](O)[C@H](O)C[C@]2(C)[C@H]3C[C@@H](O)[C@@H]4[C@@H]([C@@](C)(O)CCCNCc5ccccc5)CC[C@@]4(C)[C@]3(C)CC[C@@H]12 | 5.1 | 3.4 | –
21 | CC1(C)[C@@H](O)[C@H](O)C[C@]2(C)[C@H]3C[C@@H](O)[C@@H]4[C@@H]([C@@](C)(O)CCCNCc5ccncc5)CC[C@@]4(C)[C@]3(C)CC[C@@H]12 | 1.2 | 4.1 | –
22 | CC1(C)[C@@H](O)[C@H](O)C[C@]2(C)[C@H]3C[C@@H](O)[C@@H]4[C@@H]([C@@](C)(O)CCCNCc5cccnc5)CC[C@@]4(C)[C@]3(C)CC[C@@H]12 | 1 | 2.8 | Activity (HepG2 [5]): Active; Activity (HepG2 [6]): Active; inhibition (INH) [7]: 20%; Activity (L6): Active
